In test [1] the target is T1, ACK1 (Homo sapiens, UniProt Q07912).
T1 construct: a fusion of an N-terminal (His)6 Tag with amino acids 117 to 489 of ACK1; (His)6 (N); made in house; host or cells: baculovirus infected Hi-5 insect cells
In words: ACK1 Enzymatic Assay (PGT/autophosphorylation ELISA). The test is classed as biochemical. The protocol: IC50 values of compounds of the invention may be assessed as follows. The ACK1 kinase assay utilizes a protein expressed in baculovirus infected Hi-5 cells (a fusion of an N-terminal (His)6 Tag with amino acids 117 to 489 of ACK1) purified by affinity chromatography on a Ni-NTA column. The substrate for the reaction is ACK1 itself (autophosphorylation) and poly-Glutamic acid-Tyrosine (PGT (4:1), Sigma catalog #PO275). The PGT is coated to Nunc 96 well plates at 80 μg/mL overnight at 4° C. The morning after coating, the plates are washed twice, and […] reaction buffer (10 mM Hepes, pH 7.6; 20 mM MgCl2; 75 mM NaCl, 0.125% TWEEN20 (polyoxyethylene sorbitan monolaurate); 1 mM DTT) with 5 μM ATP are added to each well. Test compounds are added in […] DMSO, and the reaction is started by addition of […] kinase in assay buffer. The reaction proceeds for 2 h at room temperature. Next, the plates are washed four times, and the level of tyrosine phosphorylation in a given well is quantified by standard ELISA assay utilizing a phosphotyrosine antibody (PY20, Pierce).
(In general: An ELISA detects its analyte on a solid surface through an enzyme-linked reagent.)

In test [2] the test system is C8 cells. Nature of the test: ACK1 Cell Based Assay (survival under low serum, Cytotox One). The note with it: read-out: ACK1 Cell-based IC50. The protocol: ACK1 Cell Based Assay The ACK1 cell based assay is designed to find inhibitors of ACK1 kinase activity which would be prime candidates for the development of anticancer drugs. […] After 20 to 24 h incubation at 37° C. and 5% CO2, cell viability is determined using the Cytotox One kit (Promega) according to the manufacturer's instructions.

Test [3] has as its target T2, LCK (Homo sapiens, UniProt P06239).
T2 construct: 15 μL of LCK KD GST (225-509) for a final volume of 40 μL; GST
In words: LCK-Homogeneous Time Resolved Fluorescent (HTRF) Kinase Assay. The test is classed as biochemical. The protocol:
LCK-Homogeneous Time Resolved Fluorescent (HTRF) Kinase Assay
The LCK HTRF assay begins with LCK in the presence of ATP phosphorylating the biotinylated peptide Gastrin. The reaction incubates for 90 min. To quench the assay detection reagents are added which both stop the reaction by diluting out the enzyme and chelating the metals due to the presence of EDTA. Once the detection reagents are added the assay incubates for 30 min to allow for equilibration of the detection reagents.
Buffer conditions are as follows: 50 mM HEPES pH 7.5, 50 mM NaCl, 20 mM MgCl2, 5 mM MnCl2, 2 mM DTT, 0.05% BSA.
The assay is quenched and stopped with 160 μL of a detection reagent. Detection reagents are as follows: Buffer made of 50 mM Tris, pH 7.5, 100 mM NaCl, 3 mM EDTA, 0.05% BSA, 0.1% Tween20.
The assay plate is read in either a Discovery or a RubyStar.

The mark [4] stands for this setting: ACK1-dependent C8 cells, 0.125% FCS, 20 to 24 h.

Read-outs that look alike come from different tables or passages of the source.

T2 sequence (P06239 225-509): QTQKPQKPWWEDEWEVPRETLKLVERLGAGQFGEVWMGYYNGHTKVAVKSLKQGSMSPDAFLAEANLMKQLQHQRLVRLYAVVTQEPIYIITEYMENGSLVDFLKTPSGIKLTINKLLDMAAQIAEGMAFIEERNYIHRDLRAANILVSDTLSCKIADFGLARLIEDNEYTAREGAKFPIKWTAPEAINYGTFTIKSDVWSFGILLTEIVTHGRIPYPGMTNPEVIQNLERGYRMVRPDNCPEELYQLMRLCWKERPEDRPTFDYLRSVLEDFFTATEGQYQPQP
T1 sequence (Q07912 117-489): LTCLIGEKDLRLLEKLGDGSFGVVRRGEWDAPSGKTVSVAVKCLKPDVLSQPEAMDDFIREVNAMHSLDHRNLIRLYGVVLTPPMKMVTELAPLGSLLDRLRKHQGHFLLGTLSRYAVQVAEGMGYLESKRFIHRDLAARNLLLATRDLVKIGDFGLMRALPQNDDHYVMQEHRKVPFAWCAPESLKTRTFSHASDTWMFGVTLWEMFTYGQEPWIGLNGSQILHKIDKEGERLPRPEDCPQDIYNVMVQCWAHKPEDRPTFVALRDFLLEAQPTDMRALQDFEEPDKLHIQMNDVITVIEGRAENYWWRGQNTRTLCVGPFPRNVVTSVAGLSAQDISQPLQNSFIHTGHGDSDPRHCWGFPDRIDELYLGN

Broadly, the Ki is the equilibrium dissociation constant of an inhibitor or competing ligand from its target. For orientation: IC50 means the concentration that gives 50% inhibition. On to “2-(3-(2,6-dimethylphenylamino)-6-(phenylamino)-1H-indazol-1-yl)-1-(4-methylpiperazin-1-yl)ethanone [Compound 70]”, for which the Ki is above 100 nM in test [1] and below 10 nM in test [3]. In addition, in test [2] (setting [4]), the half-maximal inhibitory concentration (IC50) is above 100 nM.

For the molecule “2-(3-(2,6-dimethylphenylamino)-6-(phenylamino)-1H-indazol-1-yl)-1-(piperazin-1-yl)ethanone [Compound 71]”, the figures for the Ki in test [1] and in test [3] were above 100 nM and below 10 nM, respectively. The half-maximal inhibitory concentration (IC50) in test [2] (setting [4]) was above 100 nM.

“2-(3-(2,6-dimethylphenylamino)-6-(phenylamino)-1H-indazol-1-yl)acetic acid [Compound 69]”: the Ki is 10 to 100 nM in test [1] and below 10 nM in test [3]. For the same molecule, the IC50 in test [2] (setting [4]) was above 100 nM.

`C=CCCn1nc(Nc2c(C)cccc2C)c2cnc(Nc3ccccc3)nc21` [Compound 33, 1-(but-3-enyl)-N^3-(2,6-dimethylphenyl)-N^6-phenyl-1H-pyrazolo[3,4-d]pyrimidine-3,6-diamine]: the inhibition constant Ki in test [1] was 10 to 100 nM; in test [3], below 10 nM. The concentration for half-maximal inhibition (IC50) in test [2] (setting [4]) is above 100 nM.

For the molecule `Cc1cccc(C)c1Nc1nn(CCC(O)CO)c2nc(Nc3ccccc3)ncc12` (centres unmarked) [Compound 34, 4-(3-(2,6-dimethylphenylamino)-6-(phenylamino)-1H-pyrazolo[3,4-d]pyrimidin-1-yl)butane-1,2-diol], the Ki in test [1] is 10 to 100 nM; in test [3], below 10 nM. Further, the IC50 in test [2] (setting [4]) fell in the range of 10 to 100 nM.

On to `Cc1cccc(C)c1Nc1nn(CCC2COCO2)c2nc(Nc3ccccc3)ncc12` (centres unmarked) [Compound 35, 1-(2-(1,3-dioxolan-4-yl)ethyl)-N^3-(2,6-dimethylphenyl)-N^6-phenyl-1H-pyrazolo[3,4-d]pyrimidine-3,6-diamine], for which the Ki in test [1] is 10 to 100 nM; in test [3], below 10 nM. For the same molecule, the IC50 in test [2] (setting [4]) was above 100 nM.

For `Cc1cccc(C)c1Nc1nn(CCCO)c2nc(Nc3ccccc3)ncc12` [Compound 37, 3-(3-(2,6-dimethylphenylamino)-6-(phenylamino)-1H-pyrazolo[3,4-d]pyrimidin-1-yl)propan-1-ol], the Ki in test [1] is 10 to 100 nM; in test [3], below 10 nM. Besides, in test [2] (setting [4]), the IC50 is above 100 nM.

Consider `Cc1cccc(C)c1Nc1nn(CCCN(C)C)c2nc(Nc3ccccc3)ncc12` [Compound 38, 1-(3-(Dimethylamino)propyl)-N^3-(2,6-dimethylphenyl)-N^6-phenyl-1H-pyrazolo[3,4-d]pyrimidine-3,6-diamine], for which the values for the Ki in test [1] and in test [3] were 10 to 100 nM and below 10 nM, respectively. In addition, the IC50 in test [2] (setting [4]) fell in the range of 10 to 100 nM.

`CNCCCn1nc(Nc2c(C)cccc2C)c2cnc(Nc3ccccc3)nc21` [Compound 39, N^3-(2,6-dimethylphenyl)-1-(3-(methylamino)propyl)-N^6-phenyl-1H-pyrazolo[3,4-d]pyrimidine-3,6-diamine]: the inhibition constant (Ki) in test [1] is 10 to 100 nM; in test [3] it was below 10 nM. In test [2] (setting [4]), the IC50 is above 100 nM.

As to `CCN(CC)CCCn1nc(Nc2c(C)cccc2C)c2cnc(Nc3ccccc3)nc21` [Compound 40, 1-(3-(diethylamino)propyl)-N^3-(2,6-dimethylphenyl)-N^6-phenyl-1H-pyrazolo[3,4-d]pyrimidine-3,6-diamine], the Ki in test [1] is 10 to 100 nM; in test [3], below 10 nM. For the same molecule, in test [2] (setting [4]), the IC50 was above 100 nM.

For the molecule `Cc1cccc(C)c1Nc1nn(CCCN2CCCC2)c2nc(Nc3ccccc3)ncc12` [Compound 41, N^3-(2,6-dimethylphenyl)-N^6-phenyl-1-(3-(pyrrolidin-1-yl)propyl)-1H-pyrazolo[3,4-d]pyrimidine-3,6-diamine], the inhibition constant Ki in test [1] was 10 to 100 nM; in test [3], below 10 nM. The IC50 in test [2] (setting [4]) is above 100 nM.

On to `Cc1cccc(C)c1Nc1nn(CCC(O)CN(C)C)c2nc(Nc3ccccc3)ncc12` (centres unmarked) [Compound 43, 1-(dimethylamino)-4-(3-(2,6-dimethylphenylamino)-6-(phenylamino)-1H-pyrazolo[3,4-d]pyrimidin-1-yl)butan-2-ol], for which the Ki in test [1] is 10 to 100 nM; in test [3] it was below 10 nM. Moreover, the IC50 in test [2] (setting [4]) is above 100 nM.

In the case of `CCN(CC)CC(O)CCn1nc(Nc2c(C)cccc2C)c2cnc(Nc3ccccc3)nc21` (centres unmarked) [Compound 44, 1-(diethylamino)-4-(3-(2,6-dimethylphenylamino)-6-(phenylamino)-1H-pyrazolo[3,4-d]pyrimidin-1-yl)butan-2-ol], the Ki in test [1] is above 100 nM; in test [3] it was below 10 nM. Moreover, in test [2] (setting [4]), the IC50 was above 100 nM.

Take `Cc1cccc(C)c1Nc1nn(CCC(O)CN2CCCC2)c2nc(Nc3ccccc3)ncc12` (centres unmarked) [Compound 45, 4-(3-(2,6-dimethylphenylamino)-6-(phenylamino)-1H-pyrazolo[3,4-d]pyrimidin-1-yl)-1-(pyrrolidin-1-yl)butan-2-ol]: the Ki in test [1] was above 100 nM; in test [3], below 10 nM. In test [2] (setting [4]), the IC50 was above 100 nM.

For the molecule `Cc1cccc(C)c1Nc1nn(CCC(C)O)c2nc(Nc3ccccc3)ncc12` (centres unmarked) [Compound 46, 4-(3-(2,6-dimethylphenylamino)-6-(phenylamino)-1H-pyrazolo[3,4-d]pyrimidin-1-yl)butan-2-ol], the values for the Ki in test [1] and in test [3] were 10 to 100 nM and below 10 nM, respectively. Further, the IC50 in test [2] (setting [4]) was above 100 nM.

With `Cc1cccc(C)c1Nc1nn(CCCN2CCCCC2)c2nc(Nc3ccccc3)ncc12` [Compound 48, N^3-(2,6-Dimethyl-phenyl)-N^6-phenyl-1-(3-piperidin-1-yl-propyl)-1H-pyrazolo[3,4-d]pyrimidine-3,6-diamine], the Ki in test [1] was above 100 nM; in test [3] it was below 10 nM. For the same molecule, the IC50 in test [2] (setting [4]) is above 100 nM.

Consider `Cc1cccc(C)c1Nc1nn(CCCN2CCCCC2)c2nc(Nc3ccc(N4CCNCC4)cc3)ncc12` [Compound 49, N^3-(2,6-Dimethyl-phenyl)-N^6-(4-piperazin-1-yl-phenyl)-1-(3-piperidin-1-yl-propyl)-1H-pyrazolo[3,4-d]pyrimidine-3,6-diamine], for which the figures for the Ki in test [1] and in test [3] were 10 to 100 nM and below 10 nM, respectively. In addition, the IC50 in test [2] (setting [4]) is above 100 nM.

For the molecule `Cc1cccc(C)c1Nc1nn(CCCN2CCCCC2)c2nc(Nc3ccc(N4CCN(C)CC4)cc3)ncc12` [Compound 50, N^3-(2,6-Dimethyl-phenyl)-N^6-[4-(4-methyl-piperazin-1-yl)-phenyl]-1-(3-piperidin-1-yl-propyl)-1H-pyrazolo[3,4-d]pyrimidine-3,6-diamine], the figures for the Ki in test [1] and in test [3] were 10 to 100 nM and below 10 nM, respectively. The IC50 in test [2] (setting [4]) lay in the range of 10 to 100 nM.

Turning to `Cc1cccc(C)c1Nc1nn(CCN2CCOCC2)c2nc(Nc3ccccc3)ncc12` [Compound 51, N^3-(2,6-Dimethyl-phenyl)-1-(2-morpholin-4-yl-ethyl)-N^6-phenyl-1H-pyrazolo[3,4-d]pyrimidine-3,6-diamine], the Ki in test [1] is 10 to 100 nM; in test [3] it was below 10 nM. In test [2], the IC50 was above 100 nM.

For the molecule `COCCOc1ccc(Nc2ncc3c(Nc4c(C)cccc4C)nn(CCN4CCOCC4)c3n2)cc1` [Compound 52, N^3-(2,6-Dimethyl-phenyl)-N^6-[4-(2-methoxy-ethoxy)-phenyl]-1-(2-morpholin-4-yl-ethyl)-1H-pyrazolo[3,4-d]pyrimidine-3,6-diamine], the figures for the Ki in test [1] and in test [3] were 10 to 100 nM and below 10 nM, respectively. The IC50 in test [2] (setting [4]) was above 100 nM.

Take `COC(C)(C)CCn1nc(Nc2c(C)cccc2C)c2cnc(Nc3ccc(N4CCNCC4)cc3)nc21` [Compound 56, N^3-(2,6-Dimethyl-phenyl)-1-(3-methoxy-3-methylbutyl)-N^6-(4-piperazin-1-yl-phenyl)-1H-pyrazolo[3,4-d]pyrimidine-3,6-diamine]: in test [2] (setting [4]), the 50% inhibitory concentration (IC50) was below 10 nM. Also, the Ki in test [3] was below 10 nM.

Regarding `CNc1ncc2c(Nc3c(Cl)cccc3Cl)nn(CCC(C)(C)OC)c2n1` [Compound 83, N^3-(2,6-dichlorophenyl)-1-(3-methoxy-3-methylbutyl)-N^6-methyl-1H-pyrazolo[3,4-d]pyrimidine-3,6-diamine], the Ki is above 100 nM in test [1] and below 10 nM in test [3].

As for `CNc1ncc2c(Nc3c(Cl)cccc3Cl)nn(CCC(C)(C)OC)c2n1` [Compound 90, N^3-(2,6-dichlorophenyl)-1-(3-methoxy-3-methylbutyl)-N^5-methyl-1H-pyrazolo[3,4-d]pyrimidine-3,6-diamine], the IC50 in test [2] (setting [4]) was above 100 nM.

For the origin of these results see patent US7763624B2, “Substituted pyrazolo[3,4-d]pyrimidines as ACK-1 and LCK inhibitors” (Amgen Inc., priority 2005, dated 2010).
